Assay results as given in PubChem BioAssay (NCI).
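In this assay, cells in 96-well plates receive the compound at five concentrations for 48 hours. Endpoints are linearly interpolated between the surrounding concentrations. TGI denotes the concentration required for complete inhibition of growth.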

Columns and labels:
Assay in all cases: NCI anticancer screen, dose series, 48 h
IGROV1 ovarian = tested on: IGROV1 ovarian
NCI-H460 lung = tested on: NCI-H460 lung
U251 CNS = tested on: U251 CNS
LOX IMVI melanoma = tested on: LOX IMVI melanoma
M14 melanoma = tested on: M14 melanoma
ACHN renal = tested on: ACHN renal
SF-539 CNS = tested on: SF-539 CNS
HCC-2998 colon = tested on: HCC-2998 colon
HCT-15 colon = tested on: HCT-15 colon
NCI/ADR-RES ovarian = tested on: NCI/ADR-RES ovarian
MDA-MB-435 = tested on: MDA-MB-435
K-562 leukemia = tested on: K-562 leukemia
SN12C renal = tested on: SN12C renal
SF-268 CNS = tested on: SF-268 CNS
MDA-MB-231 breast = tested on: MDA-MB-231 breast
OVCAR-3 ovarian = tested on: OVCAR-3 ovarian
COLO 205 colon = tested on: COLO 205 colon
PC-3 prostate = tested on: PC-3 prostate
SNB-75 CNS = tested on: SNB-75 CNS
DU-145 prostate = tested on: DU-145 prostate
HS 578T breast = tested on: HS 578T breast
SK-MEL-28 melanoma = tested on: SK-MEL-28 melanoma
HOP-92 NSCLC = tested on: HOP-92 NSCLC
NCI-H522 lung = tested on: NCI-H522 lung
OVCAR-8 ovarian = tested on: OVCAR-8 ovarian
CCRF-CEM leukemia = tested on: CCRF-CEM leukemia
A549 NSCLC = tested on: A549 NSCLC
HCT-116 colon = tested on: HCT-116 colon
MALME-3M melanoma = tested on: MALME-3M melanoma
UACC-62 melanoma = tested on: UACC-62 melanoma
HOP-62 NSCLC = tested on: HOP-62 NSCLC
MCF7 breast = tested on: MCF7 breast
UACC-257 melanoma = tested on: UACC-257 melanoma
SK-OV-3 ovarian = tested on: SK-OV-3 ovarian
SW-620 colon = tested on: SW-620 colon
A498 renal = tested on: A498 renal
SNB-19 CNS = tested on: SNB-19 CNS
KM12 colon = tested on: KM12 colon
RPMI-8226 leukemia = tested on: RPMI-8226 leukemia
RXF 393 renal = tested on: RXF 393 renal
786-0 renal = tested on: 786-0 renal
OVCAR-4 ovarian = tested on: OVCAR-4 ovarian
SR leukemia = tested on: SR leukemia
HL-60(TB) leukemia = tested on: HL-60(TB) leukemia
NCI-H226 lung = tested on: NCI-H226 lung
HT29 colon = tested on: HT29 colon
MDA-N = tested on: MDA-N
SK-MEL-5 melanoma = tested on: SK-MEL-5 melanoma
UO-31 renal = tested on: UO-31 renal
NCI-H23 lung = tested on: NCI-H23 lung
SF-295 CNS = tested on: SF-295 CNS
T-47D breast = tested on: T-47D breast
OVCAR-5 ovarian = tested on: OVCAR-5 ovarian
TK-10 renal = tested on: TK-10 renal
EKVX NSCLC = tested on: EKVX NSCLC
MOLT-4 leukemia = tested on: MOLT-4 leukemia

COC(=O)C1(Cc2ccccc2)Cc2c(C)ccc(C)c2C1=O (stereo unspecified)
TGI (IGROV1 ovarian): > 100 µM | TGI (NCI-H460 lung): > 100 µM | TGI (U251 CNS): > 100 µM | TGI (LOX IMVI melanoma): 34.6 µM | TGI (M14 melanoma): 98.8 µM | TGI (ACHN renal): > 100 µM | TGI (SF-539 CNS): > 100 µM | TGI (HCC-2998 colon): 97.7 µM | TGI (HCT-15 colon): > 100 µM | TGI (NCI/ADR-RES ovarian): > 100 µM | TGI (MDA-MB-435): 43.4 µM | TGI (K-562 leukemia): > 100 µM | TGI (SN12C renal): > 100 µM | TGI (SF-268 CNS): > 100 µM | TGI (MDA-MB-231 breast): 38.4 µM | TGI (OVCAR-3 ovarian): 85.1 µM | TGI (COLO 205 colon): 25.4 µM | TGI (PC-3 prostate): 78.2 µM | TGI (SNB-75 CNS): 61.3 µM | TGI (DU-145 prostate): > 100 µM | TGI (HS 578T breast): 62 µM | TGI (SK-MEL-28 melanoma): > 100 µM | TGI (HOP-92 NSCLC): 54.3 µM | TGI (NCI-H522 lung): 56.2 µM | TGI (OVCAR-8 ovarian): 52.1 µM | TGI (CCRF-CEM leukemia): > 100 µM | TGI (A549 NSCLC): 36.4 µM | TGI (HCT-116 colon): > 100 µM | TGI (MALME-3M melanoma): 50.3 µM | TGI (UACC-62 melanoma): 54.8 µM | TGI (HOP-62 NSCLC): > 100 µM | TGI (MCF7 breast): 81.1 µM | TGI (UACC-257 melanoma): 64.9 µM | TGI (SK-OV-3 ovarian): > 100 µM | TGI (SW-620 colon): > 100 µM | TGI (A498 renal): > 100 µM | TGI (SNB-19 CNS): > 100 µM | TGI (KM12 colon): 42.8 µM | TGI (RPMI-8226 leukemia): 75.4 µM | TGI (RXF 393 renal): 83.1 µM | TGI (786-0 renal): > 100 µM | TGI (OVCAR-4 ovarian): > 100 µM | TGI (SR leukemia): > 100 µM | TGI (HL-60(TB) leukemia): 54 µM | TGI (NCI-H226 lung): 97.3 µM | TGI (HT29 colon): 69.8 µM | TGI (MDA-N): > 100 µM | TGI (SK-MEL-5 melanoma): 28.8 µM | TGI (UO-31 renal): 38 µM | TGI (NCI-H23 lung): > 100 µM | TGI (SF-295 CNS): > 100 µM | TGI (T-47D breast): > 100 µM | TGI (OVCAR-5 ovarian): > 100 µM | TGI (TK-10 renal): > 100 µM | TGI (EKVX NSCLC): > 100 µM | TGI (MOLT-4 leukemia): 57.5 µM
